What was measured:
[1] = tested on: Bacillus subtilis; conditions: Pharmazie, 43, 537-538 (1988); cited from earlier work
[2] = Light and dark box test (anti-anxiety effect); assay type: in vivo, mouse (Std-ddY, male); conditions: Mus musculus, 0.5 h; oral, 30 min before test; mice; p<0.05 vs vehicle; read-out: Anti-anxiety effect MED (minimum effective dose)
Description: Experiment 2: Light and dark box test (anti-anxiety effect)
Anti-anxiety effect of test compounds was examined in a box with light and dark compartments according to the method of Crawley, J. and Goodwin, F. K. [cf. Pharmacol. Biochem. Behav. 13, 167-170 (1980)] with slight modification.
Light and dark box test is a useful, simple and handy method for behaviorally and pharmacologically examining anti-anxiety effect of the drugs, by utilizing the habit of rodents such as mice and rats, etc. which prefer to stay in a dark place, and regarding as positive drug effect the increase of the relative stay of the animals in the light compartment which is an uncomfortable place for the animals.
Light and dark box test was carried out using the test box device (35×15×17 cm) which comprises: a light compartment (20×15×17 cm) consisting of transparent acrylic plates and highly illuminated by an incandescent lamp (1,700 lux); a dark compartment (15×15×17 cm) being made of black acrylic plates connected to the light compartment; and at the boundary of compartments, an opening (4.4×5 cm) in which mice can go through freely between two compartments.
Male mice of Std-ddY strain weighing 25-30 g were used in a group of 10. Each trial was started by placing a mouse in the center of the light compartment 30 minutes after oral administration of a test compound, and the time spent by the mouse in the light compartment during a 5 minute observation period was measured, and the rate of the stay of mice in the light compartment to the whole time spent in the experiment was calculated. The increasing rate of the relative stay of the test compound to that of the vehicle control group was yielded, based on the rate of the stay of mice in the light compartment.
The anti-anxiety effect of the test compound was represented by the minimum effectivetive dose (MED) at which the increasing rate of the relative stay was regarded statistically as significant (Williams-Wilcoxon's test, p<0.05).

[3] = Collagen-induced arthritis inhibitory test 2; assay type: in vivo, mouse (DBA/1j, female); conditions: for effect on collagen-induced arthritis inhibitory test (conclusion): experiment 5, 10 mg/kg oral; for suppression of arthritis as compared with control: Example 165: at least until 34th day
Protocol: Experiment 5: Collagen-induced arthritis inhibitory test 2
Collagen-induced arthritis inhibitory test was carried out according to Kakimoto, K. et al. (cf. above reference of Kakimoto, K. et al.) with slight modification. Type II collagen from bovine joints (product of the Collagen Research Center, Japan) was emulsified in complete Freund's adjuvant (product of DIFCO Lab., U.S.A.). Female mice of DBA/1j strain (product of Nippon Charles River, Japan) were immunized by injection at the base of the tail with 150 μg of the emulsified collagen. After twenty one days from the immunization, arthritis was induced by a booster immunization of 150 μg of the emulsified collagen prepared in the same manner as above at the base of the tail again. Test compounds were administered orally at a dose of 10 mg/kg on 5 consecutive days in a week for 8 weeks, beginning from the day before the immunization. Mice were monitored visually for arthritis once a week beginning from the day of the booster immunization. The severity of arthritis was estimated by the sum of the scores of all 4 paws.

[4] = biological target: peripheral (ω3) benzodiazepine (BZ) receptor (Rattus norvegicus, UniProt P16257); assay: BZω3 (peripheral-type) benzodiazepine receptor binding assay
Protocol: Experiment 1: Central (ω1, ω2) and peripheral (ω3) benzodiazepine (BZ) receptor binding assays
BZω1 and BZω2 receptor binding assays were carried out according to the method of Stephens, D. N. et al. [cf.
Receptor membrane fractions for ω1, ω2 and ω3 were prepared from the cerebellum (ω1), spinal cord (ω1) or kidney (ω3) in 7-8 week old male rats of Wistar strain by the procedure described below.
After the cerebellum or spinal cord was homogenized with 20 volumes of ice-cold 50 mM Tris-citrate buffer (pH 7.1), the homogenate was centrifuged for 15 minutes at 40,000 g. The pellet obtained was washed 4 times by the same procedure, frozen and stored for 24 hours at -60° C. The resulting pellet, after being thawed, washed with the buffer and centrifuged, was suspended in the buffer I for the binding assay (50 mM Tris-HCl buffer containing 120 mM NaCl, 5 mM KCl, 2 mM CaCl2 and 1 mM MgCl2 ; pH 7.4) and the suspension thus obtained (containing 1 g wet tissue/40 ml) was used for the BZω1 and BZω2 receptor binding assays. On the other hand, the kidney was homogenized with 20 volumes of the ice-cold buffer II for the binding assay (50 mM Na--K phosphate buffer containing 100 mM NaCl; pH 7.4), filtered through 4 sheets of gauze, and centrifuged for 20 minutes at 40,000 g. The pellet obtained was suspended in the buffer II and the suspension (containing 1 g wet tissue/100 ml) was used for the binding assay as BZω3 receptor membrane source.
Flumazenil (final concentration: 0.3 nM for (ω1 and 1 nM for ω2) and flunitrazepam (final concentration: 10 μM) were used for the BZω1 or BZω2 receptor binding assays as the isotope-labeled and unlabeled ligands, respectively. For the BZω3 receptor binding assay, [^3 H] 4'-chlorodiazepam (7-chloro-1,3-dihydro-1-methyl-5-(4-chlorophenyl)-2H-1,4-benzodiazepin-2-one) (final concentration: 0.5 nM) and diazepam (final concentration: 100 μM) were used as the isotope-labeled and unlabeled ligands, respectively. Incubation was performed for 30 minutes at 37° C. in the BZω1 or BZω2 receptor binding assays, and for 150 minutes at 0° C. in the BZω3 receptor binding assay. The BZω1 or BZω2 receptor binding assays were carried out in the presence of bicuculline (final concentration: 100 μM).
The binding assay was performed by the following procedure. After adding each test compound at certain known concentrations, a [^3 H] ligand and the buffer I or II to each test tube, each assay was started by addition of membrane preparation (total volume of 1 ml). After incubation, the assay was terminated by filtration with suction through a Whatman GF/B glass fiber filter using a cell harvester (Brandel, USA). The filters were rapidly washed 3 times with 5 ml of ice-cold 50 mM Tris-HCl buffer (pH 7.7) for ω1 and ω2, or the buffer II forω3, and transferred to scintillation vials containing 10 ml liquid scintillation cocktail (ACS-II, Amersham, USA). After a few hours, retained radioactivity was counted by a liquid scintillation spectrometer. Specific binding of [^3 H] ligands was calculated as the difference between amounts of radioactivity bound in the presence and absence of excess unlabeled ligands.

[5] = known from literature; cited from earlier work

Row | SMILES | effect on collagen-induced arthritis inhibitory test (conclusion) [3] | IC50 [4] | effect in isoniazid-induced clonic convulsion test (known drugs) [5] | further results
1 | CC(=O)c1c(C)nc(-c2ccccc2)nc1SCC(=O)Nc1ccc(Cl)cc1 [2-(5-acetyl-6-methyl-2-phenyl-4-pyrimidinylthio)-N-(4-chlorophenyl)acetamide] | – | – | – | antibacterial activity against Bacillus subtilis [1]: shows antibacterial activity against Bacillus subtilis
2 | CCCN(CCC)C(=O)CNc1nc(-c2ccc(C(F)(F)F)cc2)nc(C)c1C [Example 6, 2-[5,6-Dimethyl-2-(4-trifluoromethylphenyl)-4-pyrimidinylamino]-N,N-dipropylacetamide] | potent effect | 0.23 nM | – | minimal effective dose [2]: 0.3 mg/kg; onset of arthritis delayed until (days after the booster immunization) ([3]; 10 mg/kg oral, 5 consecutive days a week for 8 weeks): 21 days; severity of arthritis versus control group ([3]; 10 mg/kg oral, 5 days a week, at least until day 34, last day of the experiment): much lower than the control group
3 | CCN(C(=O)COc1nc(-c2ccc(N)cc2)nc(C)c1C)c1ccccc1 [Example 165, 2-[2-(4-aminophenyl)-5,6-dimethyl-4-pyrimidinyloxy]-N-ethyl-N-phenylacetamide] | potent effect | 5.07 nM | – | suppression of arthritis as compared with control ([3]; 10 mg/kg oral, 5 days a week): markedly suppressed the arthritis as compared with control group
4 | CCCN(C(=O)COc1nc(-c2ccccc2)nc(C)c1C)c1ccccc1 [Example 178, 2-(5,6-Dimethyl-2-phenyl-4-pyrimidinyloxy)-N-phenyl-N-propylacetamide] | less potent effect | 0.57 nM | – | suppression of arthritis as compared with control ([3]; 10 mg/kg oral, 5 days a week): the arthritis was suppressed as compared with the control
5 | C[C@]12CC[C@@H](O)C[C@@H]1CC[C@@H]1[C@@H]2CC[C@]2(C)[C@@H](C(=O)CO)CC[C@@H]12 [THDOC, allotetrahydrodeoxycorticosterone] | – | – | positive effect | –
6 | CC(=O)[C@H]1CC[C@H]2[C@@H]3CC[C@H]4C[C@H](O)CC[C@]4(C)[C@H]3CC[C@]12C [allopregnanolone] | – | – | positive effect | –
7 | CN1C(=O)CN=C(c2ccccc2)c2cc(Cl)ccc21 [diazepam] | – | – | positive effect | –

Source: US5972946A, “Acetamide derivative, process for preparing the same, and a pharmaceutical composition containing the same” (Dainippon Pharmaceutical Co., Ltd., priority 1995, dated 1999)
